These results are taken from PMC7161708 (Acta Pharmaceutica Sinica. B, 2019).

For orientation: Papp means a coefficient for how fast a substance crosses the barrier. A higher Papp goes with ready permeation. Usually IC50 stands for the midpoint of a concentration-inhibition curve.

Structures are written as SMILES. Where “and” joins values, the source holds several entries; their conditions need not be identical. Identical values can stand only once. Like-named read-outs stand apart in the source and are kept apart here.

The test system of one data set is BV2 cells. Description: Cell viability assay, BV2 cells. The settings on record: 24 h; for Cytotoxicity on BV2 cells: 2, 5, 10, 20, 40 μmol/L; for Cell viability of BV2 cells at high concentration: 80, 160 μmol/L. It is filed as cell-based.
A further data set can be described thus: in vitro. The settings on record: PAMPA.
For the next data set, the system named is SH-SY5Y cells. Description: Cell viability assay. It is filed as cell-based. The following applies: 24 h.
The conditions of data set [1]: from PAMPA–BBB Pe.
Data set [2] deals with phosphorylation of p70S6K. Description: Inhibition of p70S6K phosphorylation, α-screen assay in SH-SY5Y cell. It is filed as cell-based. The settings on record: mean ± SD (n ≥ 3).
For another data set, the system named is Aβ1−40 and Aβ1−42. Description: Aβ clearance ELISA assay in BV2 cell. It is filed as cell-based. The settings on record: 5, 10 and 20 μmol/L, 24 h, then 2 μg/mL soluble Aβ for 3 h. (ELISA stands for enzyme-linked immunosorbent assay.)
The target of the next data set is hERG potassium channels (Homo sapiens, UniProt Q12809). Description: hERG inhibition patch clamp assay.
For data set [3], the system named is phosphorylation of tau protein. Description: Tau phosphorylation Western blot in SH-SY5Y cell. It is filed as cell-based. The following applies: 5, 10 and 20 μmol/L, 24 h. A general note: In western blotting, separated proteins are transferred to a membrane and probed.
Data set [4] has as its system APP/PS1 transgenic AD model mice. Description: Morris Water Maze assay in APP/PS1 transgenic mice. It is filed as in vivo. The settings on record: 100 days, compared with TV group.
The subject of a further data set is Aβ40/42. Description: Aβ40/42 level in brain of APP/PS1 transgenic mice, ELISA. It is filed as in vivo. The settings on record: oral, 100 days, compared with TV group.
Data set [5] deals with phosphorylation of AKT, mTOR, p70S6K and ULK1. Description: Western blot of AKT/mTOR/ULK1 signaling pathway in BV2 cells. It is filed as cell-based. The following applies: 20, 10, 5 μmol/L, 24 h.
For data set [6], the system named is p70S6K and tau phosphorylation. It is filed as in vivo. The settings on record: APP/PS1 transgenic mice.
In another data set the test system is autophagy in BV2 cells. Description: Autophagic flux assay. It is filed as cell-based. The following applies: 20 μmol/L, 24 h, compared with the control group.
Data set [7] deals with APP/PS1 transgenic AD model mice. Description: Nesting test in APP/PS1 transgenic mice. It is filed as in vivo. The settings on record: 30 mg/kg orally, 100 days, compared with TV group.
A further data set deals with LC3 II, Beclin 1 and p62. Description: Western blot of autophagy marker proteins in BV2 cells. It is filed as cell-based. The settings on record: 24 h.

hERG potassium channels, sequence (Q12809 whole entry): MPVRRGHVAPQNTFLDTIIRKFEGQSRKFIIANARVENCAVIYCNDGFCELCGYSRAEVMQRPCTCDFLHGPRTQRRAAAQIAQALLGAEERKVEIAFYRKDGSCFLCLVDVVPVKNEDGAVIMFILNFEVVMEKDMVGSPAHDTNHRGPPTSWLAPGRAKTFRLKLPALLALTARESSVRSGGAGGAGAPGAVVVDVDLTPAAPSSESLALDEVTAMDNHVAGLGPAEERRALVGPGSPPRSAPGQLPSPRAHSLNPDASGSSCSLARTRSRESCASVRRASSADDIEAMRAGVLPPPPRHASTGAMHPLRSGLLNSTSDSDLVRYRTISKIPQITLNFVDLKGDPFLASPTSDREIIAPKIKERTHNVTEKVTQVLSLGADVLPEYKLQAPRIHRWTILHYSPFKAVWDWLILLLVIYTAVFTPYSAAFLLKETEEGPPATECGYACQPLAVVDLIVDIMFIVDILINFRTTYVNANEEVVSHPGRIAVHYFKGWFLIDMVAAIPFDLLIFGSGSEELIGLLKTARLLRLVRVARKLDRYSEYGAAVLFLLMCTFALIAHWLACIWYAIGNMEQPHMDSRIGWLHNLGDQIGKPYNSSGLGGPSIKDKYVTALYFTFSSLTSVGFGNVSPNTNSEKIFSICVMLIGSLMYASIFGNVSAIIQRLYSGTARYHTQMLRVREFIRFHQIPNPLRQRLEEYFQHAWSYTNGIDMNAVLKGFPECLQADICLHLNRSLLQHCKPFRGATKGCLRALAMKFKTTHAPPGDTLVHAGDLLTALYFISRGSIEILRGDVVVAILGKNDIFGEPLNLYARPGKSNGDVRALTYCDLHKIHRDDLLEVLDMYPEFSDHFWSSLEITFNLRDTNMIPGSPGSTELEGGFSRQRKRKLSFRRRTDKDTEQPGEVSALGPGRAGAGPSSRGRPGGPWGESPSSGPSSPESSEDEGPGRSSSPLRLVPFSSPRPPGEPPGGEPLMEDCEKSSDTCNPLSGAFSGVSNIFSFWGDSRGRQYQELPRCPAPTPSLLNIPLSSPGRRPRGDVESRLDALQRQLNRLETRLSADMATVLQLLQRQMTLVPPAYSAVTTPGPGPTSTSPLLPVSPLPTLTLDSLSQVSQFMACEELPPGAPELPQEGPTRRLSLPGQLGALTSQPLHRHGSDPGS

`CC(=O)Oc1ccccc1C(=O)Nc1ncc(N2CCOCC2)s1` [Compound 12, 2-Acetyloxy-N-(5-morpholinothiazol-2-yl)benzamide]: the “Concentration at which viability of BV2 cells began to decrease” value with BV2 cells was 20 µM. This compound also showed a Papp at 10 h, 100 μg/mL in “in vitro” of 5.76 ± 0.57 ×10⁻⁶ cm/s. The “Concentration at which viability of SH-SY5Y cells decreased” value in the data set on SH-SY5Y cells is 5 µM. Besides, the “Prediction of BBB penetration” value in [1] is “CNS+ (Compounds with permeabilities Pe > 3.08 × 10^−6 cm/s could cross the BBB by passive diffusion (CNS+))”. In addition, the “Inhibition ratio of p70S6K phosphorylation at 20 μmol/L (%)” value (“Inhibition ratio … (%)” below) in data set [2] is 85.20% and 85.20±1.76%.

Regarding `CC(=O)Oc1cccc(C(=O)Nc2ncc(N3CCOCC3)s2)c1` [Compound 22, 3-Acetyloxy-N-(5-morpholinothiazol-2-yl)benzamide], the “Aβ1−40 and Aβ1−42 content in the cell (ELISA)” value with Aβ1−40 and Aβ1−42 was “dose-dependently decreased both Aβ1−40 and Aβ1−42 content”. The same compound displayed an IC50 against hERG potassium channels above 40 µM. Further, the “Tau phosphorylation at Ser199, 396 and Tyr231 (Western blot)” value in data set [3] is given as “dose-dependently inhibited tau phosphorylation”. Further, in data set [4] (10 mg/kg orally), the “Escape latencies in MWM assay” value is “significantly reduced the escape latencies”. Besides, in data set [4] (30 mg/kg orally), the “Crossing times in MWM probe trial” value is recorded as “significantly increased the crossing times” and the “Escape latencies in MWM assay” value was “significantly reduced the escape latencies”. Moreover, the “Aβ40/42 level in cerebral cortex and hippocampus (ELISA)” value in the data set on Aβ40/42 is reported as “significantly reduced Aβ40/42 level”. Also, in the data set on BV2 cells, the “Cytotoxicity on BV2 cells” value was “no cytotoxicity” and the “Cell viability of BV2 cells at high concentration” value is “decreased”. Besides, in data set [5], the “Phosphorylation of AKT, mTOR, p70S6K (Western blot)” value is given as “dose-dependently suppressed the phosphorylation of AKT, mTOR, p70S6K” and the “ULK1 phosphorylation at Ser 757 (Western blot)” value is “decreased ULK1 phosphorylation at Ser 757”. Also, the Papp at 10 h, 100 μg/mL in “in vitro” was determined as 6.02 ± 0.27 ×10⁻⁶ cm/s. The “p70S6K phosphorylation level in the cortex (Western blot)” value in data set [6] (10 mg/kg) is “significantly reduce the p70S6K phosphorylation level”. Also, the “p70S6K phosphorylation level in the cortex (Western blot)” value in data set [6] (30 mg/kg) was “significantly reduce the p70S6K phosphorylation level”. Besides, the “Cytotoxicity on SH-SY5Y cells” value in the data set with SH-SY5Y cells is given as “low cytotoxicity”. Moreover, in data set [1], the “Prediction of BBB penetration” value is “CNS+ (Compounds with permeabilities Pe > 3.08 × 10^−6 cm/s could cross the BBB by passive diffusion (CNS+))”. In addition, in the data set on autophagy in BV2 cells, the “Numbers of yellow and red mTagRFP-mWasabi-LC3 puncta” value is “increased the numbers of both yellow and red puncta”. In addition, the “Inhibition ratio … (%)” value in data set [2] is 88.95% and 88.95±0.78%. The Nesting test entry in [7] is on record as “obvious improvement in nesting test”. For the same compound, the “Protein levels of Beclin 1, LC3 II and p62 (Western blot)” value in the data set on LC3 II, Beclin 1 and p62 is “upregulate the protein levels of Beclin 1 and LC3 II, and decrease the p62 protein level”.

For `O=C(Nc1ncc(N2CCOCC2)s1)c1ccco1` [Compound 32, N-(5-Morpholinothiazol-2-yl)furan-2-carboxamide], in the data set “in vitro”, the apparent permeability (Papp) at 10 h, 100 μg/mL was 6.16 ± 0.5 ×10⁻⁶ cm/s. Also, the “Prediction of BBB penetration” value in data set [1] was “CNS+ (Compounds with permeabilities Pe > 3.08 × 10^−6 cm/s could cross the BBB by passive diffusion (CNS+))”. Moreover, the “Inhibition ratio … (%)” value in data set [2] came out at 81.09±4.27%.

For the compound `O=C(Nc1ncc(N2CCOCC2)s1)c1cccs1` [Compound 33, N-(5-Morpholinothiazol-2-yl)thiophene-2-carboxamide], the Papp at 10 h, 100 μg/mL in “in vitro” amounted to 10.4 ± 1.25 ×10⁻⁶ cm/s. In data set [1], the “Prediction of BBB penetration” value is “CNS+ (Compounds with permeabilities Pe > 3.08 × 10^−6 cm/s could cross the BBB by passive diffusion (CNS+))”. Further, the “Inhibition ratio … (%)” value in data set [2] came to 79.80±5.03%.

Consider `O=C(Nc1ncc(N2CCOCC2)s1)c1ccoc1` [Compound 34, N-(5-Morpholinothiazol-2-yl)furan-3-carboxamide], for which the Papp at 10 h, 100 μg/mL in the data set “in vitro” was 6.82 ± 0.5 ×10⁻⁶ cm/s. For the same compound, in [1], the “Prediction of BBB penetration” value is on record as “CNS+ (Compounds with permeabilities Pe > 3.08 × 10^−6 cm/s could cross the BBB by passive diffusion (CNS+))”. For the same compound, the “Inhibition ratio … (%)” value in [2] came to 80.23±0.88%.

Take `O=C(Nc1ncc(N2CCOCC2)s1)c1ccsc1` [Compound 35, N-(5-Morpholinothiazol-2-yl)thiophene-3-carboxamide]: the apparent permeability (Papp) at 10 h, 100 μg/mL in the data set “in vitro” came to 9.24 ± 0.47 ×10⁻⁶ cm/s. Moreover, the “Prediction of BBB penetration” value in data set [1] was “CNS+ (Compounds with permeabilities Pe > 3.08 × 10^−6 cm/s could cross the BBB by passive diffusion (CNS+))”. Further, the “Inhibition ratio … (%)” value in [2] was found to be 79.84±1.17%.

With `O=C(Nc1ncc(N2CCOCC2)s1)c1ccc(Cl)s1` [Compound 36, 5-Chloro-N-(5-morpholinothiazol-2-yl)thiophene-2-carboxamide], in the data set with BV2 cells, the “Cytotoxicity on BV2 cells” value is on record as “no cytotoxicity” and the “Cell viability of BV2 cells at high concentration” value was “decreased”. Moreover, in [5], the “Phosphorylation of AKT, mTOR, p70S6K (Western blot)” value was “effectively inhibit the phosphorylation of AKT, mTOR, and p70S6K”; the “ULK1 phosphorylation at Ser 757 (Western blot)” value is recorded as “no effect on the ULK1 phosphorylation”. Besides, the apparent permeability (Papp) at 10 h, 100 μg/mL in the data set “in vitro” amounted to 10.62 ± 0.1 ×10⁻⁶ cm/s. The “Cytotoxicity on SH-SY5Y cells” value with SH-SY5Y cells was “low cytotoxicity”. Also, in [1], the “Prediction of BBB penetration” value is “CNS+ (Compounds with permeabilities Pe > 3.08 × 10^−6 cm/s could cross the BBB by passive diffusion (CNS+))”. Further, the “Numbers of yellow and red mTagRFP-mWasabi-LC3 puncta” value with autophagy in BV2 cells is “increased the numbers of both yellow and red puncta”. For the same compound, the “Inhibition ratio … (%)” value in data set [2] came out at 83.32±0.41%. The “Protein levels of Beclin 1, LC3 II and p62 (Western blot)” value with LC3 II, Beclin 1 and p62 was “upregulate the protein levels of Beclin 1 and LC3 II, and decrease the p62 protein level”.

`Cc1ccc(C(=O)Nc2ncc(N3CCOCC3)s2)s1` [Compound 37, 5-Methyl-N-(5-morpholinothiazol-2-yl)thiophene-2-carboxamide] gave a Papp at 10 h, 100 μg/mL in the data set “in vitro” of 9.89 ± 0.37 ×10⁻⁶ cm/s. Further, the “Prediction of BBB penetration” value in [1] is recorded as “CNS+ (Compounds with permeabilities Pe > 3.08 × 10^−6 cm/s could cross the BBB by passive diffusion (CNS+))”. For the same compound, the “Inhibition ratio … (%)” value in [2] was found to be 81.20±1.60%.

On to `Cc1ccsc1C(=O)Nc1ncc(N2CCOCC2)s1` [Compound 38, 3-Methyl-N-(5-morpholinothiazol-2-yl)thiophene-2-carboxamide], for which the Papp at 10 h, 100 μg/mL in the data set “in vitro” amounted to 9.88 ± 0.75 ×10⁻⁶ cm/s. Also, in [1], the “Prediction of BBB penetration” value is recorded as “CNS+ (Compounds with permeabilities Pe > 3.08 × 10^−6 cm/s could cross the BBB by passive diffusion (CNS+))”. For the same compound, in [2], the “Inhibition ratio … (%)” value is reported as 80.32±0.71%.

In the data set “in vitro”, `O=C(CCc1ccccc1)Nc1ncc(N2CCOCC2)s1` [Compound 52, N-(5-Morpholinothiazol-2-yl)-3-phenylpropanamide] returned a Papp at 10 h, 100 μg/mL of 10.5 ± 1.13 ×10⁻⁶ cm/s. Also, in data set [1], the “Prediction of BBB penetration” value is on record as “CNS+ (Compounds with permeabilities Pe > 3.08 × 10^−6 cm/s could cross the BBB by passive diffusion (CNS+))”. The “Inhibition ratio … (%)” value in data set [2] is listed as 81.60±1.86%.

For the compound `CC(=O)Oc1ccccc1C(=O)Nc1ncc([N+](=O)[O-])s1` [NTZ, nitazoxanide, reference compound], in data set [4] (30 mg/kg orally), the “Escape latencies in MWM assay” value is listed as “significantly shortened the escape latencies”. The compound further yielded an apparent permeability coefficient (Papp) at 10 h, 100 μg/mL in “in vitro” of 1.26 ± 0.21 ×10⁻⁶ cm/s. Also, the Nesting test result in data set [7] is given as “obvious improvement in nesting test”.
